{
  "source": "patent US20090105172A1",
  "about": "“Stabilized Aptamers to PSMA and Their Use as Prostate Cancer Therapeutics” (priority 2005, published 2009)",
  "key": {"[1]": {"tested_on": "LNCaP cells", "assay": "Cell proliferation assay (BrdU ELISA), targeted killing", "type": "cell-based", "conditions": "for effect on LNCaP cell viability: entire concentration range", "quoted_text": "Effects on LNCaP cell viability were assessed in a cell proliferation assay based on chemiluminescent detection of BrdU described below (Cell Proliferation ELISA, BrdU (Roche, Indianapolis, Ind.). PC-3 cells were used as a control cell line.\nMedia from LNCaP (PSMA+) or PC3 (PSMA−) cells growing in 15 cm plates was aspirated off then cells were washed with 10 mL 1×PBS. Cells were trypsinized for 30 sec at 37° C. Following trypsinization, 8 mL 10% FBS media was used to quench trypsin. […] Following spin the media was aspirated off and the cell pellet was re-suspended with 10 mL complete media. The cell density was adjusted to 200,000 cells/mL. 50 μl of cells/well was added to collagen coated black 96-well plates (10,000 cells/well). […] Following overnight incubation 25 μl of media, aptamer or antibody was added to each well with the final volume in the well being 100 μl and incubated at 37° C. in 5% CO2 for designated time length. […] After 2 days 20 μl BrdU labeling reagent (100×) is mixed with 2 mL of complete media. […] After incubation, the media was removed, and the assay was completed following the manufacturer's protocol: 200 μl/well FixDenat solution was added to each well and incubated for 30 min at RT. Following removal of FixDenat solution 100 μl anti-BrdU POD Fab fragment solution (Luminol/4-iodophenol) was added to each well and incubated for 90 min at RT. After incubation anti-BrdU POD solution was removed and plates were washed with 200 μl/well of washing solution three times with 5 min RT incubations. 100 μl of substrate solution was added to each well and cells were incubated for 3 min at RT in the dark. The plates were read using a luminescence program with a 1 sec count on a Packard TopCount Microplate Scintillation and Luminescence Counter."}, "[2]": {"tested_on": "LNCaP cells (PSMA+)", "assay": "LNCaP FACS binding assay with fluorescein-labeled aptamers", "type": "cell-based", "conditions": "FACS analysis; scrambled A9 negative control", "procedure": "To prepare aptamers for the FACS assay, PSMA aptamers were serially diluted (0-1 uM) in FACS buffer (1×DPBS w/Ca^++/Mg^++ (Gibco, Carlsbad, Calif.) supplemented with 10 mg/mL salmon sperm DNA & 0.2% Na Azide), in a V-bottom 96 well plate, at the concentrations to be tested. LNCaP and PC-3 cells (ATCC, Manassas, Va.) were harvested with trypsin, and 200,000 cells/well were counted, washed once with 1×DPBS (with Ca^++ and Mg^+) and resuspended in 200 μl of FACS Buffer. The 200 μl of cells in FACS buffer were added to individual wells of a new 96 well plate, pelleted by centrifugation (1300 rpm for 5 minutes), and resuspended in 100 μl of the appropriate concentration of diluted aptamer. FACS buffer, a-PSMA antibody (3C6) (Northwest Biotherapeutics, Bothell, Wash., Cat #: 60-5002) and an irrelevant fluorescein isothiocyanate (“FITC”) mouse IgG1 isotype control antibody (BD Pharmingen, San Diego, Calif., Cat#: 554679) were used as controls. The wells of aptamer/cell mixture were incubated at room temperature for 20-30 minutes.\nAfter incubation, 180 μl of FACS buffer (plus 10 mg/mL ssDNA, and 0.2% Na Azide) was added to each well to quench the reaction and cells were pelleted by centrifugation.\nAnti-fluorescein/Oregon Green®, rabbit IgG fraction, Alexa Fluor® 488 conjugate (Molecular Probes, Eugene, Oreg., Cat#: A11090) was diluted 1:100 in FACS buffer (100 μl/well) as the secondary antibody for the aptamer-FITC conjugates and FITC-mouse IgG isotype control. FITC Rat anti-mouse IgG1 (A85-1) (BD Pharmingen, San Diego, Calif., Cat#: 553443) was diluted in 1:100 in FACS Buffer as the secondary for the α-PSMA antibody. After centrifugation, the cell pellets were resuspended in 100 μl of the appropriate diluted secondary antibody, and incubated 10 minutes at room temperature. After incubation, 180 μl of FACS buffer was added to each well to quench the reaction, and cells were pelleted by centrifugation.\nA tertiary antibody which recognizes the Alexa Fluor® 488 goat anti-rabbit IgG was prepared to further amplify the Alexa Fluor signal. Alexa Fluor® 488 goat anti-rabbit IgG (H+ L) (Molecular Probes, Eugene, Oreg., Cat#: A11034) was diluted 1:100 in FACS buffer, and the pelleted cells were resupsended in 100 μl of the tertiary antibody and incubated for 10 minutes at room temperature. […]\nCell samples were analyzed on a FACS Scan machine (Becton Dickinson, San Jose, Calif.) under the following parameters: FSC/SSC, FL-1/FSC, FL-3/FSC. The unstained and/or isotype controls were used to establish gating parameters, and the data was analyzed using Cell Quest Pro software version 5.1.1 (Becton Dickinson Immunocytometry Systems, San Jose, Calif.)."}, "[3]": {"target": "T1, ECD PSMA (Homo sapiens, UniProt Q04609)", "T1 construct": "vector-derived N-terminal linker […]; made in house; host or cells: 293 Freestyle cells, pSecTag2B vector", "T1 sequence (Q04609 with tags, fused parts or gaps)": "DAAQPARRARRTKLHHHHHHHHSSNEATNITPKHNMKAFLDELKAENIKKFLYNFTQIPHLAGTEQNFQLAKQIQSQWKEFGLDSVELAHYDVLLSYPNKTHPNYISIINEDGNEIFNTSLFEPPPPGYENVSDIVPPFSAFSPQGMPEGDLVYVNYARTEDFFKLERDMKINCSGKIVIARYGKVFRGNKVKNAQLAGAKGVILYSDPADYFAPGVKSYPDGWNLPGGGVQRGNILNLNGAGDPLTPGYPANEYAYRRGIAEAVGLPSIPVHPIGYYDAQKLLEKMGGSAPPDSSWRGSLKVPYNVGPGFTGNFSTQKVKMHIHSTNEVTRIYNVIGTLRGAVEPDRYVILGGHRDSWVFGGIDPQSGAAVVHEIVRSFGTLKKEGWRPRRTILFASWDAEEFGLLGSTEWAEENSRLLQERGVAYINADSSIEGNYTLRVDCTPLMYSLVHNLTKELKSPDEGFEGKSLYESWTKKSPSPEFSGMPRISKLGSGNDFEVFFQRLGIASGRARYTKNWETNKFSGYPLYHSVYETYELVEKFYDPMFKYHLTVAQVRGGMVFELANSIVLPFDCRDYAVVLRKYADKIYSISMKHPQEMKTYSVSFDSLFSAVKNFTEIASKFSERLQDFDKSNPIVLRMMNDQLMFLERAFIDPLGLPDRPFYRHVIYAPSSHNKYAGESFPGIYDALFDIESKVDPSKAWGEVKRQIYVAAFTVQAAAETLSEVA", "assay": "Dot blot binding assay (nitrocellulose filter) with purified ECD PSMA", "conditions": "for Max % bound (highest % of minimer bound to target protein): dot blot", "source_text": "Protein Purification of ECD of PSMA: An I.M.A.G.E. clone (5202715) encoding full length recombinant human PSMA was purchased from Open Biosystems (Clone EHS1001-18533, Huntsville, Ala.). PCR was used to amplify the extracellular portion of the full length clone. An oligo with an N-terminal histidine tag was designed to engineer a construct which lacks the transmembrane domain residues 1-44. The his-tagged extracellular domain (ECD) was subcloned into the pSecTag2B expression vector (Invitrogen, Carlsbad, Calif.). The ECD of PSMA was purified in house from transfected 293 Freestyle cells (ATCC, Manassas, Va.). The amino acid sequence of the expressed protein comprising an N-terminal linker sequence of […] followed by eight Histidines is listed below: […] VSDr[…]a[…]r[…]rYV […] (SEQ ID NO 5)\nDot Blot Binding Analysis. Dot blot binding assays were performed throughout the selections to monitor the protein binding affinity of the pools. For initial pool screening, trace ^32P-labeled pool RNA was combined with PSMA and incubated at room temperature for 30 min in 1×SHMCK buffer pH 7.4 (20 mM Hepes pH 7.4, 120 mM NaCl, 5 mM KCl, 1 mM MgCl2, 1 mM CaCl2) plus 0.1 mg/mL tRNA in a final volume of 30 μl. The mixture was applied to a dot blot apparatus (Schleicher and Schuell Minifold-1 Dot Blot, Acrylic, Keene, N.H.), assembled (from top to bottom) with nitrocellulose, nylon, and gel blot membranes. RNA that is bound to protein is captured on the nitrocellulose filter; whereas the non-protein bound RNA is captured on the nylon filter. […] The Round 9 pool was cloned and screened in a single point dot blot assay using 100 nM PSMA (0 nM PSMA was used as a negative control). Clone transcripts were 5′ end labeled with ^32-P ATP. Likely binders were than assayed for KD determination by the blot assay conditions described directly above, but without tRNA, using an 8 point PSMA titration with a constant RNA concentration. […] Both of the clones screened were unique sequences in the Round 9 selection pool.\nIn order to identify the core structural elements required for ARC955 binding to PSMA, the 3′-boundaries of the clone was determined through alkaline hydrolysis. The parent RNA transcript was labeled at the 5′-end with γ-^32P ATP and T4 polynucleotide kinase. Radiolabeled ligands were subjected to partial alkaline hydrolysis and then selectively bound in solution to ECD PSMA (purified in house) at 100 nM before being passed through nitrocellulose filters (Centrex MF 1.5 mL, 0.45 μm, Schleicher & Schuell, Keene N.H.). Retained oligonucleotides were resolved on 8% denaturing polyacrylamide gels. The smallest oligonucleotide bound to PSMA defined the 3′-boundary. On the basis of the boundary experiments as well as visual inspection of predicted folds, truncated constructs were synthesized. Clones were then assayed by dot blot as previously described to determine their KD. […] The binding curve for ARC1091 in the dot blot assay is depicted in FIG. 5A, and the predicted secondary structure of ARC1091 is depicted in FIG. 5B. The KD and maximum % bound for the 3 minimized constructs with the overall highest PSMA affinity, as determined by a dot blot binding assay, are listed in Table 4. For the minimized rGmH aptamers described in Table 5 below, the guanosine triphosphates are 2′-OH and the adenosines triphosphates, cytidine triphosphates and uridine triphosphates are 2′-OMe. Unless noted otherwise, the individual sequences are represented in the 5′ to 3′ orientation. In some embodiments, the invention comprises aptamers with a nucleic acid sequence as described in Table 4 below. In some embodiments, the nucleic acid sequence of an aptamer described in Table 4 below additionally comprises a 3′ cap (e.g., an inverted dT cap), and/or 5′ amine (NH2) modification to facilitate chemical coupling, and/or conjugation to a high molecular weight, non-immunogenic compound (e.g., PEG). […]"}, "[4]": {"conditions": "Round 9 PSMA rGmH clones, 8 point PSMA titration, without tRNA"}},
  "note": "“Also recorded” adds a separate entry of the source. {C6-FAM} = fluorescein label attached via 5'-amine; [invdT] = inverted (3'-3') thymidine; m = 2'-O-methyl; r = 2'-OH (RNA); f = 2'-fluoro",
  "data": [
    {"compound": "O=c1c(-c2ccc(O)cc2)coc2cc(O)cc(O)c12", "note": "[Genistein, reference compound]", "values": [
      {"measurement": "effect in cytotoxicity assays at 25 μM", "setting": "[1]; positive control, 25 μM", "value": "partial inhibition"},
      {"measurement": "effect in cytotoxicity assays at 150 μM", "setting": "[1]; positive control, 150 μM", "value": "complete cell killing"}
    ]},
    {"compound": "C6 FAM-GGAGGACCGAAAAAGACCUGACUUCUAUACUAAGUCUACGUUCCUCC-3T (2'-fluoro at CU, RNA at AG, [invdT] at 3' end, 5' {C6-FAM}, backbone not given here) [ARC710, fluorescently labeled A9 minimer]", "values": [
      {"measurement": "competition with fluorescently labeled anti-PSMA antibody for binding to the surface of LNCaP cells", "setting": "[2]", "value": "effectively competes"}
    ]},
    {"compound": "CUACUACACAUGGGUCGGGUGAGUGGCAAAGGAAUAGUAG (2'-O-methyl at ACU, RNA at G, backbone not given here) [ARC725, non-functional rGmH minimer, irrelevant control]", "values": [
      {"measurement": "PSMA binding", "setting": "[3]", "value": "no intrinsic PSMA binding; also recorded: not to exhibit PSMA binding"},
      {"measurement": "KD (nM)", "setting": "[3]; rGmH minimers", "value": "no binding"},
      {"measurement": "Max % bound (highest % of minimer bound to target protein)", "setting": "[3]; rGmH minimers", "value": "no binding"}
    ]},
    {"compound": "CUACUGGGUGGCUGGGAGGGGAAGAGGGAGUAG (2'-O-methyl at ACU, RNA at G, backbone not given here) [ARC1089, rGmH minimer]", "values": [
      {"measurement": "Kd", "setting": "[3]; rGmH minimers", "value": 9.3, "unit": "nM"},
      {"measurement": "Max % bound (highest % of minimer bound to target protein)", "setting": "[3]; rGmH minimers", "value": 22, "unit": "%"}
    ]},
    {"compound": "GGGUGGCUGGGAGGGGAAGAGGG (2'-O-methyl at ACU, RNA at G, backbone not given here) [ARC1088, rGmH minimer]", "values": [
      {"measurement": "Kd", "setting": "[3]; rGmH minimers", "value": 2.1, "unit": "nM"},
      {"measurement": "Max % bound (highest % of minimer bound to target protein)", "setting": "[3]; rGmH minimers", "value": 33, "unit": "%"}
    ]},
    {"compound": "UAAUACGACUCACUAUAGGGAGAGGAGAGAACGUUCUACUAUGGGUGGCUGGGAGGGGAAGAGGGAGUAGGUCGAUCGAUCGAUCAUCGAUG [ARC955]", "values": [
      {"measurement": "Kd", "setting": "[3]; [4]", "value": 9, "unit": "nM"},
      {"measurement": "effect on LNCaP cell viability", "setting": "[1]", "value": "no intrinsic effect on cell viability"}
    ]},
    {"compound": "UAAUACGACUCACUAUAGGGGAGAGGAGAGAACGUUCUACACAUGGGUCGGGUGAGUGGCAAAGGAAUAGGUCGAUCGAUCGAUCAUCGAUG [ARC956]", "values": [
      {"measurement": "Kd", "setting": "[3]; [4]", "value": 16, "unit": "nM"}
    ]},
    {"compound": "c6 fam-mCmGmGmAfCfCmGAAAAmAmGmAmCfCfUGAfCfUfUfCfUAfUAfCfUAAmGmUmCmUAfCmGfUmUmCmCmG-3T (CGGACCGAAAAAGACCUGACUUCUAUACUAAGUCUACGUUCCG; sugars from the 5' end mmmmffmrrrrmmmmffrrfffffrfrffrrmmmmrfmfmmmm, [invdT] at 3' end, 5' {C6-FAM}, backbone not given here) [ARC711, fluorescently labeled A9 minimer]", "values": [
      {"measurement": "competition with fluorescently labeled anti-PSMA antibody for binding to the surface of LNCaP cells", "setting": "[2]", "value": "effectively competes"}
    ]},
    {"compound": "mAGmAGGmAGmAGmAmAmCGmUmUmCmUmAmCmUmAmUGGGmUGGmCmUGGGmAGGGG (AGAGGAGAGAACGUUCUACUAUGGGUGGCUGGGAGGGG; 2'-O-methyl at ACU, RNA at G, backbone not given here) [ARC1091, minimized ARC955 (G2) aptamer]", "values": [
      {"measurement": "PSMA binding", "setting": "[3]", "value": "maintains the full binding capacity"},
      {"measurement": "Kd", "setting": "[3]; rGmH minimers", "value": 3.1, "unit": "nM"},
      {"measurement": "Max % bound (highest % of minimer bound to target protein)", "setting": "[3]; rGmH minimers", "value": 52, "unit": "%"}
    ]},
    {"compound": "mCmGmGmAfCfCmGAAAAmAmGmAmCfCfUGAfCfUfUfCfUAfUAfCfUAAmGmUmCmUAfCmGfUmUmCmCmG-3T (CGGACCGAAAAAGACCUGACUUCUAUACUAAGUCUACGUUCCG; sugars from the 5' end mmmmffmrrrrmmmmffrrfffffrfrffrrmmmmrfmfmmmm, [invdT] at 3' end, backbone not given here) [ARC942, minimized A9 aptamer]", "values": [
      {"measurement": "effect on LNCaP cell viability", "setting": "[1]", "value": "no intrinsic effect on cell viability"}
    ]}
  ]
}
